In US7208500B2, “Thienopyridine-phenylacetamides and their derivatives useful as new anti-angiogenic agents” (Agouron Pharmaceuticals, Inc., priority 2003, dated 2007):

Tests used:
[1] = target: T1, unphosphorylated VEGF-R2D50 (FLVK), cytosolic domain of human VEGF-R2 (Homo sapiens, UniProt P35968, DEL940-989/E990V); experiment: VEGF-R2 coupled spectrophotometric assay (FLVK); type: biochemical
T1 construct: VEGF-R2D50 contains residues 806–939 and 990–1171; made in house; host or cells: baculovirus/insect cell system
T1 sequence (P35968 with tags, fused parts or gaps DEL940-989/E990V limits assumed): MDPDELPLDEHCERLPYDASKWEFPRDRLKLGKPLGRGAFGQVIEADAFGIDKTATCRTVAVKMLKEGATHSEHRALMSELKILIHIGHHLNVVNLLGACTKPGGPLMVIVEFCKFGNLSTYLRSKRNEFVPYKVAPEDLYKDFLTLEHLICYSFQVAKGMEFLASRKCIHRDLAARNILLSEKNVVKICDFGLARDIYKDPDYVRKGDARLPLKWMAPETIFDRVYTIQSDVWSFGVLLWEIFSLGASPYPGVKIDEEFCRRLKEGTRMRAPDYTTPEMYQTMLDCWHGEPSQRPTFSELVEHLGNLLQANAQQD
From the text: This construct determines the ability of a test compound to inhibit tyrosine kinase activity. A construct (VEGF-R2D50) of the cytosolic domain of human vascular endothelial growth factor receptor 2 (VEGF-R2) lacking the 50 central residues of the 68 residues of the kinase insert domain was expressed in a baculovirus/insect cell system. Of the 1356 residues of full-length VEGF-R2, VEGF-R2D50 contains residues 806–939 and 990–1171, and also one point mutation (E990V) within the kinase insert domain relative to wild-type VEGF-R2. Autophosphorylation of the purified construct was performed by incubation of the enzyme at a concentration of […] in the presence of 3 mM ATP and 40 mM MgCl2 in 100 mM HEPES, pH 7.5, containing 5% glycerol and 5 mM DTT, at 4° C. for 2 h. […] See Parast et al., Biochemistry, 37, 16788–16801 (1998).
The production of ADP from ATP that accompanies phosphoryl transfer was coupled to oxidation of NADH using phosphoenolpyruvate (PEP) and a system having pyruvate kinase (PK) and lactic dehydrogenase (LDH). The oxidation of NADH was monitored by following the decrease of absorbance at 340 nm (e340=6.22 cm^−1 mM^−1) using a Beckman DU 650 spectrophotometer. Assay conditions for phosphorylated VEGF-R2D50 (indicated as FLVK-P in the tables below) were the following: 1 mM PEP; […]; 50 units of LDH/mL; 20 units of PK/mL; 5 mM DTT; 5.1 mM poly(E4Y1); 1 mM ATP; and 25 mM MgCl2 in 200 mM HEPES, pH 7.5. Assay conditions for unphosphorylated VEGF-R2D50 (indicated as FLVK in the tables) were the following: 1 mM PEP; […]; 50 units of LDH/mL; 20 units of PK/mL; 5 mM DTT; 20 mM poly(E4Y1); 3 mM ATP; and 60 mM MgCl2 and 2 mM MnCl2 in 200 mM HEPES, pH 7.5. Assays were initiated with 5 to 40 nM of enzyme. Ki values were determined by measuring enzyme activity in the presence of varying concentrations of test compounds. The percent inhibition at 50 nm (% inhibition@50 nm) was determined by linear least-squares regression analysis of absorpbance as a function of time. The binding inhibitions were fitted to equation as described by Morrison. The data were analyzed using Enzyme Kinetic and Kaleidagraph software.

[2] = target: T2, FGF-R1 intracellular kinase domain (Homo sapiens, UniProt P11362, C488A/C584S/L457V); experiment: FGF-R spectrophotometric assay; type: biochemical; conditions: 50 nM test compound; read-out: FGF-P (% inh @ 50 nM)
T2 construct: starting from the endogenous methionine residue 456 to glutamate 766; made in house; host or cells: baculovirus vector expression system
T2 sequence (P11362 456-766 L457V/C488A/C584S): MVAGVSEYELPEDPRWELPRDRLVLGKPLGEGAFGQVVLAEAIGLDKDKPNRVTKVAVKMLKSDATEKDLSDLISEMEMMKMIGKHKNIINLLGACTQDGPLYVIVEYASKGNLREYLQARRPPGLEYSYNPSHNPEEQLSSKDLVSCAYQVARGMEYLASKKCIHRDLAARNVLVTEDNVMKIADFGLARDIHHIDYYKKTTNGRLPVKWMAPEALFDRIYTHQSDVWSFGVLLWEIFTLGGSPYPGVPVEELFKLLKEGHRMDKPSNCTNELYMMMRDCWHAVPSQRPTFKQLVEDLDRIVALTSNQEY
Method: The intracellular kinase domain of human FGF-R1 was expressed using the baculovirus vector expression system starting from the endogenous methionine residue 456 to glutamate 766, according to the residue numbering system of Mohammadi et al., Mol. Cell. Biol., 16, 977–989 (1996). In addition, the construct also has the following 3 amino acid substitutions: L457V, C488A, and C584S.
The spectrophotometric assay was carried out as described above for VEGF-R2, except for the following changes in concentration: FGF-R=50 nM, ATP=2 mM, and poly(E4Y1)=15 mM.

SMILES	Ki [1] [nM]	inhibition at 0.05 µM [2] [%]
Cc1cc(C)nc(NC(=O)Cc2ccc(Oc3ccnc4cc(-c5nccn5C)sc34)c(F)c2)c1 [Example 1, N-(4,6-Dimethyl-pyridin-2-yl)-2-{3-fluoro-4-[2-(1-methyl-1H-imidazol-2-yl)-thieno[3,2-b]pyridin-7-yloxy]-phenyl}-acetamide]	< 1	0 to 5
CNC(=O)Cc1ccc(Oc2ccnc3cc(C(=O)N4CC[C@@H](O)C4)sc23)c(F)c1 [Example 2, 2-{3-Fluoro-4-[2-((R)-3-hydroxy-pyrrolidine-1-carbonyl)-thieno[3,2-b]pyridin-7-yloxy]-phenyl}-N-methyl-acetamide]	> 10	0 to 5
Cc1cc(C)nc(NC(=O)Cc2ccc(Oc3ccnc4cc(C(=O)N(C)CCCN(C)C)sc34)cc2)c1 [Example 5, 7-{4-[(4,6-Dimethyl-pyridin-2-ylcarbamoyl)-methyl]-phenoxy}-thieno[3,2-b]pyridine-2-carboxylic acid (3-dimethylamino-propyl)-methyl-amide]		0 to 5
Cc1cccnc1NC(=O)Cc1ccc(Oc2ccnc3cc(C(=O)N4CCC4)sc23)cc1 [Example 26, 2-{4-[2-(Azetidine-1-carbonyl)-thieno[3,2-b]pyridin-7-yloxy]-phenyl}-N-(3-methyl-pyridin-2-yl)-acetamide]	> 10	
O=C(Cc1ccc(Oc2ccnc3cc(C(=O)N4CCC4)sc23)cc1)Nc1ccncc1 [Example 35, 2-{4-[2-(Azetidine-1-carbonyl)-thieno[3,2-b]pyridin-7-yloxy]-phenyl}-N-pyridin-4-yl-acetamide]	> 10	0 to 5
Cc1cc(NC(=O)Cc2ccc(Oc3ccnc4cc(C(=O)N5CCC5)sc34)cc2)n[nH]1 [Example 39, 2-{4-[2-(Azetidine-1-carbonyl)-thieno[3,2-b]pyridin-7-yloxy]-phenyl}-N-(5-methyl-1H-pyrazol-3-yl)-acetamide]		0 to 5
O=C(Cc1ccc(Oc2ccnc3cc(C(=O)N4CCC4)sc23)cc1)Nc1cc[nH]n1 [Example 40, 2-{4-[2-(Azetidine-1-carbonyl)-thieno[3,2-b]pyridin-7-yloxy]-phenyl}-N-(1H-pyrazol-3-yl)-acetamide]	> 10	0 to 5
O=C(Cc1ccc(Oc2ccnc3cc(C(=O)N4CCC4)sc23)cc1)Nc1ccon1 [Example 42, 2-{4-[2-(Azetidine-1-carbonyl)-thieno[3,2-b]pyridin-7-yloxy]-phenyl}-N-isoxazol-3-yl-acetamide]	> 10	0 to 5
Cc1coc(NC(=O)Cc2ccc(Oc3ccnc4cc(C(=O)N5CCC5)sc34)cc2Cl)n1 [Example 54, 2-{4-[2-(Azetidine-1-carbonyl)-thieno[3,2-b]pyridin-7-yloxy]-2-chloro-phenyl}-N-(4-methyl-oxazol-2-yl)-acetamide]	> 10	0 to 5
O=C(Cc1ccc(Oc2ccnc3cc(C(=O)N4CCC4)sc23)cc1Cl)NCCCN1CCOCC1 [Example 57, 2-{4-[2-(Azetidine-1-carbonyl)-thieno[3,2-b]pyridin-7-yloxy]-2-chloro-phenyl}-N-(3-morpholin-4-yl-propyl)-acetamide]	> 10	0 to 5

Further lines, results first:

Ki [1] [nM]	inhibition at 0.05 µM [2] [%]	SMILES
> 10	0 to 5	Cc1ccc(CNC(=O)Cc2ccc(Oc3ccnc4cc(-c5nccn5C)sc34)cc2Cl)o1 [Example 58, 2-{2-Chloro-4-[2-(1-methyl-1H-imidazol-2-yl)-thieno[3,2-b]pyridin-7-yloxy]-phenyl}-N-(5-methyl-furan-2-ylmethyl)-acetamide]
> 10	0 to 5	Cn1ccnc1-c1cc2nccc(Oc3ccc(CC(=O)NCc4cccc(F)c4)c(Cl)c3)c2s1 [Example 59, 2-{2-Chloro-4-[2-(1-methyl-1H-imidazol-2-yl)-thieno[3,2-b]pyridin-7-yloxy]-phenyl}-N-(3-fluoro-benzyl)-acetamide]
> 10	0 to 5	CNC(=O)Cc1ccc(Oc2ccnc3cc(C(=O)N4CCC4)sc23)cc1Cl [Example 63, 2-{4-[2-(Azetidine-1-carbonyl)-thieno[3,2-b]pyridin-7-yloxy]-2-chloro-phenyl}-N-methyl-acetamide]
> 10	0 to 5	CNC(=O)Cc1ccc(Oc2ccnc3cc(C(=O)N4CC[C@@H](O)C4)sc23)cc1Cl [Example 64, 2-{2-Chloro-4-[2-((R)-3-hydroxy-pyrrolidine-1-carbonyl)-thieno[3,2-b]pyridin-7-yloxy]-phenyl}-N-methyl-acetamide]
> 10	0 to 5	CNC(=O)Cc1ccc(Oc2ccnc3cc(-c4nccn4C)sc23)cc1Cl [Example 65, 2-{2-Chloro-4-[2-(1-methyl-1H-imidazol-2-yl)-thieno[3,2-b]pyridin-7-yloxy]-phenyl}-N-methyl-acetamide]
> 10	0 to 5	CNC(=O)C1(c2ccc(Oc3ccnc4cc(C(=O)N5CC[C@@H](O)C5)sc34)cc2)CC1 [Example 67, 1-{4-[2-((R)-3-Hydroxy-pyrrolidine-1-carbonyl)-thieno[3,2-b]pyridin-7-yloxy]-phenyl}-cyclopropanecarboxylic acid methylamide]
> 10	0 to 5	CNC(=O)Cc1ccc(Oc2ccnc3cc(C(=O)N4CC[C@H](OC)C4)sc23)cc1 [Example 68, 2-{4-[2-((S)-3-Methoxy-pyrrolidine-1-carbonyl)-thieno[3,2-b]pyridin-7-yloxy]-phenyl}-N-methyl-acetamide]
> 10	5 to 10	CNC(=O)C(OC)c1ccc(Oc2ccnc3cc(C(=O)N4CC[C@@H](O)C4)sc23)cc1Cl (stereo partly drawn) [Example 70, 2-{2-Chloro-4-[2-((R)-3-hydroxy-pyrrolidine-1-carbonyl)-thieno[3,2-b]pyridin-7-yloxy]-phenyl}-2-methoxy-N-methyl-acetamide]
> 10	0 to 5	CNC(=O)C(O)c1ccc(Oc2ccnc3cc(C(=O)N4CC[C@@H](O)C4)sc23)cc1Cl (stereo partly drawn) [Example 71, 2-{2-Chloro-4-[2-((R)-3-hydroxy-pyrrolidine-1-carbonyl)-thieno[3,2-b]pyridin-7-yloxy]-phenyl}-2-hydroxy-N-methyl-acetamide]
	0 to 5	CNC(=O)C(OC)c1ccc(Oc2ccnc3cc(-c4nccn4C)sc23)cc1Cl (stereo not shown) [Example 72, 2-{2-Chloro-4-[2-(1-methyl-1H-imidazol-2-yl)-thieno[3,2-b]pyridin-7-yloxy]-phenyl}-2-methoxy-N-methyl-acetamide]
	0 to 5	CNC(=O)C(O)c1ccc(Oc2ccnc3cc(-c4nccn4C)sc23)cc1Cl (stereo not shown) [Example 73, 2-{2-Chloro-4-[2-(1-methyl-1H-imidazol-2-yl)-thieno[3,2-b]pyridin-7-yloxy]-phenyl}-2-hydroxy-N-methyl-acetamide]
> 10	0 to 5	CNC(=O)C(O)c1ccc(Oc2ccnc3cc(-c4nc(C(C)(C)O)cs4)sc23)cc1 (stereo not shown) [Example 75, 2-Hydroxy-2-(4-{2-[4-(1-hydroxy-1-methyl-ethyl)-thiazol-2-yl]-thieno[3,2-b]pyridin-7-yloxy}-phenyl)-N-methyl-acetamide]
> 10	0 to 5	CNC(=O)C(O)c1ccc(Oc2ccnc3cc(C(=O)N4CC[C@@H](OC)C4)sc23)cc1 (stereo partly drawn) [Example 77, 2-Hydroxy-2-{4-[2-((R)-3-methoxy-pyrrolidine-1-carbonyl)-thieno[3,2-b]pyridin-7-yloxy]-phenyl}-N-methyl-acetamide]
> 10	> 10	CNC(=O)C(=O)c1ccc(Oc2ccnc3cc(C(=O)N4CC[C@@H](OC)C4)sc23)cc1 [Example 78, 2-{4-[2-((R)-3-Methoxy-pyrrolidine-1-carbonyl)-thieno[3,2-b]pyridin-7-yloxy]-phenyl}-N-methyl-2-oxo-acetamide]
